Values of other authors as cited in US20230263755A1, “STABILIZATION OF ACETAMINOPHEN IN AQUEOUS SOLUTION” (Nostrum Pharmaceuticals, LLC, priority 2022, published 2023).

For `CC(=O)Nc1ccc(O)cc1` [acetaminophen, N-(4-hydroxyphenyl)acetamide], the half-life is given as “about 2 hours”.
